This passage reports T/C results from PubChem BioAssay AID330 (DTP/NCI, 2004).

In the assay the test system is P388 leukemia ip, CD2F1 mice, survival T/C. Description: NCI In Vivo Anticancer Drug Screen. Data for tumor model P388 Leukemia (intraperitoneal) in CD2F1 (CDF1) mice. To be noted: endpoint: median survival time, higher = longer survival. In short, it runs like this: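 Mice carrying the transplanted tumor received test compound or vehicle. Survival was recorded in each group, and the value is the treated-group measurement divided by that of the vehicle-treated control group.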

Where [1] appears, read: dose: 100.0 mg/kg/injection, schedule: Q04DX002 (ip), vehicle: saline.
The mark [2] stands for this setting: dose: 50.0 mg/kg/injection, schedule: Q01DX005 (ip), vehicle: Klucel (hydroxypropylcellulose) (HPC).
Setting [3] is: dose: 100.0 mg/kg/injection, schedule: Q01DX005 (ip), vehicle: Klucel (hydroxypropylcellulose) (HPC).
[4] abbreviates: dose: 200.0 mg/kg/injection, schedule: Q01DX005 (ip), vehicle: Klucel (hydroxypropylcellulose) (HPC).
Where [5] appears, read: dose: 50.0 mg/kg/injection, schedule: Q01DX009 (ip), vehicle: Klucel (hydroxypropylcellulose) (HPC).
Setting [6] is: dose: 100.0 mg/kg/injection, schedule: Q01DX009 (ip), vehicle: Klucel (hydroxypropylcellulose) (HPC).
The mark [7] stands for this setting: dose: 200.0 mg/kg/injection, schedule: Q01DX009 (ip), vehicle: Klucel (hydroxypropylcellulose) (HPC).
Setting [8] is: dose: 60.0 mg/kg/injection, schedule: Q01DX005 (ip), vehicle: saline with Tween-80.
Setting [9] is: dose: 120.0 mg/kg/injection, schedule: Q01DX005 (ip), vehicle: saline with Tween-80.
The mark [10] stands for this setting: dose: 3.12 mg/kg/injection, schedule: Q01DX009 (ip), vehicle: saline.

Several values for one entry are separate records, joined by “and”; a condition that tells them apart may be missing. Equal entries are not always repeated. Toxic doses and inconclusive results are not listed.

Turning to `CC1CN1P(=O)(N1CC=CCC1)N1CC1C` (stereo unspecified), the T/C by setting is: (dose: 22.0 mg/kg/injection, schedule: Q04DX003 (ip), vehicle: saline) 100 % of control; (dose: 33.0 mg/kg/injection, schedule: Q01DX009 (ip), vehicle: saline) 150 % of control; (dose: 33.0 mg/kg/injection, schedule: Q04DX003 (ip), vehicle: saline) 113 % of control; (dose: 50.0 mg/kg/injection, schedule: Q04DX003 (ip), vehicle: saline) 122 % of control; (dose: 75.0 mg/kg/injection, schedule: Q04DX003 (ip), vehicle: saline) 150 % of control.
Consider `Clc1cnc2n[se]nc2c1`, for which the T/C by setting is: (dose: 25.0 mg/kg/injection, schedule: Q04DX002 (ip), vehicle: saline) 106 % of control; (dose: 50.0 mg/kg/injection, schedule: Q04DX002 (ip), vehicle: saline) 116 % of control; under setting [1], 105 % of control and 114 % of control.
On to `O=C1c2cccc([N+](=O)[O-])c2C(=O)c2c1oc1ccc3ccccc3c21`, for which the T/C is, setting by setting: under setting [2], 104 % of control; under setting [3], 102 % of control; under setting [4], 96 % of control.
`CC(=O)O/C=C(/C=C/OC(C)=O)C(C/C=C(\C)C#CC=C(C)C)OC(C)=O` (stereo unspecified): the T/C is, setting by setting: (dose: 5.31 mg/kg/injection, schedule: Q01DX005 (ip), vehicle: saline with Tween-80) 98 % of control; (dose: 10.62 mg/kg/injection, schedule: Q01DX005 (ip), vehicle: saline with Tween-80) 103 % of control; (dose: 21.25 mg/kg/injection, schedule: Q01DX005 (ip), vehicle: saline with Tween-80) 103 % of control and 94 % of control; (dose: 42.5 mg/kg/injection, schedule: Q01DX005 (ip), vehicle: saline with Tween-80) 87 % of control.
With `C=C(C)[C@@H]1CC[C@]2(C(=O)OC)CC[C@]3(C)[C@H](CC[C@@H]4[C@@]5(C)CC[C@H](O)C(C)(C)[C@@H]5CC[C@]43C)[C@@H]12`, the T/C reads like this: (dose: 25.0 mg/kg/injection, schedule: Q01DX009 (ip), vehicle: Klucel (hydroxypropylcellulose) (HPC)) 107 % of control; under setting [5], 102 % of control; under setting [6], 98 % of control; under setting [7], 102 % of control.
Regarding `CC(=O)CNc1ccccc1C(N)=O`, the T/C is 101 % of control under setting [2], 95 % of control under setting [3] and 104 % of control under setting [4].
Take `COc1cccc2c1N(COC(C)=O)C(=O)C1C=CC(C)(C)OC21` (stereo unspecified): the T/C is, setting by setting: (dose: 8.0 mg/kg/injection, schedule: Q01DX009 (ip), vehicle: Klucel (hydroxypropylcellulose) (HPC)) 97 % of control; (dose: 16.0 mg/kg/injection, schedule: Q01DX009 (ip), vehicle: Klucel (hydroxypropylcellulose) (HPC)) 95 % of control; (dose: 32.0 mg/kg/injection, schedule: Q01DX009 (ip), vehicle: Klucel (hydroxypropylcellulose) (HPC)) 97 % of control; (dose: 64.0 mg/kg/injection, schedule: Q01DX009 (ip), vehicle: Klucel (hydroxypropylcellulose) (HPC)) 92 % of control.
In the case of `CCN(CC)CCOC(=O)Nc1cc(C)cc(C)c1`, the T/C reads like this: under setting [8], 94 % of control; under setting [9], 91 % of control.
Turning to `CCCCCCCC[N+]1(CC)CCCC1`, the T/C is 95 % of control under setting [10]; 95 % of control (dose: 6.25 mg/kg/injection, schedule: Q01DX009 (ip), vehicle: saline); 96 % of control (dose: 12.5 mg/kg/injection, schedule: Q01DX009 (ip), vehicle: saline).
In the case of `FC(F)(F)C1OC2CCCN2C2=C1CCc1ccccc12` (stereo unspecified), the T/C reads like this: under setting [1], 108 % of control; (dose: 200.0 mg/kg/injection, schedule: Q04DX002 (ip), vehicle: saline) 101 % of control; (dose: 400.0 mg/kg/injection, schedule: Q04DX002 (ip), vehicle: saline) 100 % of control.
As for `CN(C)c1ccc(C(=C(c2ccc(N(C)C)cc2)c2ccc(N(C)C)cc2)c2ccc(N(C)C)cc2)cc1`, the T/C is, setting by setting: (dose: 12.5 mg/kg/injection, schedule: Q01DX005 (ip), vehicle: saline with Tween-80) 96 % of control; (dose: 25.0 mg/kg/injection, schedule: Q01DX005 (ip), vehicle: saline with Tween-80) 92 % of control; (dose: 50.0 mg/kg/injection, schedule: Q01DX005 (ip), vehicle: saline with Tween-80) 89 % of control.
With `CN(C)c1ncnc2c1ccn2C1OC(CO)C(O)C1O` (stereo unspecified), the T/C is, setting by setting: (dose: 6.25 mg/kg/injection, schedule: Q01DX005 (ip), vehicle: Klucel (hydroxypropylcellulose) (HPC)) 106 % of control; (dose: 12.5 mg/kg/injection, schedule: Q01DX005 (ip), vehicle: Klucel (hydroxypropylcellulose) (HPC)) 109 % of control; (dose: 25.0 mg/kg/injection, schedule: Q01DX005 (ip), vehicle: Klucel (hydroxypropylcellulose) (HPC)) 117 % of control.
Consider `CC1OC(OC2CC(O)(C(=O)CO)Cc3c(O)c4c(c(O)c32)C(=O)c2ccccc2C4=O)CC(N)C1O` (stereo unspecified), for which the T/C by setting is: (dose: 0.05 mg/kg/injection, schedule: Q01DX009 (ip), vehicle: water) 159 % of control; (dose: 0.1 mg/kg/injection, schedule: Q01DX009 (ip), vehicle: water) 185 % of control and 216 % of control; (dose: 0.2 mg/kg/injection, schedule: Q01DX009 (ip), vehicle: water) 221 % of control and 261 % of control; (dose: 0.21 mg/kg/injection, schedule: Q04DX003 (ip), vehicle: water) 172 % of control; (dose: 0.25 mg/kg/injection, schedule: Q04DX003 (ip), vehicle: water) 101 % of control and 122 % of control; (dose: 0.36 mg/kg/injection, schedule: Q04DX003 (ip), vehicle: water) 209 % of control. For the same compound, the T/C (dose: 0.39 mg/kg/injection, schedule: Q01DX009 (ip), vehicle: water) is 115 % of control; the T/C (dose: 0.4 mg/kg/injection, schedule: Q01DX009 (ip), vehicle: water) was 115 % of control; the T/C (dose: 0.5 mg/kg/injection, schedule: Q04DX003 (ip), vehicle: water) was 157 % of control; the T/C (dose: 0.6 mg/kg/injection, schedule: Q04DX003 (ip), vehicle: water) is 239 % of control; the T/C (dose: 0.78 mg/kg/injection, schedule: Q01DX009 (ip), vehicle: water) was 86 % of control; the T/C (dose: 1.0 mg/kg/injection, schedule: Q04DX003 (ip), vehicle: water) was 167 % of control and 183 % of control. Moreover, the T/C by setting is: (dose: 1.3 mg/kg/injection, schedule: Q01DX001 (ip), vehicle: water) 216 % of control; (dose: 2.4 mg/kg/injection, schedule: Q01DX001 (ip), vehicle: water) 104 % of control; (dose: 3.2 mg/kg/injection, schedule: Q01DX001 (ip), vehicle: water) 97 % of control; (dose: 4.0 mg/kg/injection, schedule: Q04DX003 (ip), vehicle: water) 104 % of control.
`O=c1c(SSc2coc3ccccc3c2=O)coc2ccccc12`: the T/C under setting [8] was 116 % of control; the T/C under setting [9] is 102 % of control; the T/C (dose: 240.0 mg/kg/injection, schedule: Q01DX005 (ip), vehicle: saline with Tween-80) is 106 % of control.
Turning to `CC(C)(C)OC(=O)N1CC(O)CC1C(=O)O` (stereo unspecified), the T/C is 91 % of control (dose: 50.0 mg/kg/injection, schedule: Q01DX005 (ip), vehicle: saline) and 91 % of control (dose: 100.0 mg/kg/injection, schedule: Q01DX005 (ip), vehicle: saline).
For the compound `C/C(CC/C(C)=N/N=C(\N)c1ccccn1)=N\N=C(/N)c1ccccn1`, the T/C was 99 % of control under setting [5], 98 % of control under setting [6] and 99 % of control under setting [7].
In the case of `CCN(CC)CCCC(C)Nc1cc(OC)c2nc(C)ccc2c1OC` (stereo unspecified), the T/C was 97 % of control (dose: 0.78 mg/kg/injection, schedule: Q01DX009 (ip), vehicle: saline); 100 % of control (dose: 1.56 mg/kg/injection, schedule: Q01DX009 (ip), vehicle: saline); 99 % of control and 97 % of control under setting [10].
`C/C=C1\NC(=O)c2csc(n2)C(C(C)C)NC(=O)c2csc(n2)/C(=C/C)NC(=O)C(C(C)O)NC(=O)c2csc(n2)-c2ccc(-c3nc(-c4nc(C(=O)NC(C(=O)NCC(C)O)C(C)O)cs4)cs3)nc2-c2csc1n2` (stereo unspecified): the T/C runs as follows: (dose: 0.25 mg/kg/injection, schedule: Q01DX009 (ip), vehicle: Klucel (hydroxypropylcellulose) (HPC)) 107 % of control; (dose: 0.5 mg/kg/injection, schedule: Q01DX009 (ip), vehicle: Klucel (hydroxypropylcellulose) (HPC)) 112 % of control; (dose: 1.0 mg/kg/injection, schedule: Q01DX009 (ip), vehicle: Klucel (hydroxypropylcellulose) (HPC)) 104 % of control; (dose: 2.0 mg/kg/injection, schedule: Q01DX009 (ip), vehicle: Klucel (hydroxypropylcellulose) (HPC)) 103 % of control.
